# Source: patent US4395558A, “9-Epi-mitomycin B and D compounds” (Kyowa Hakko Kogyo Kabushiki Kaisha, priority 1979, dated 1983)
# Read-outs that look alike come from different tables or passages of the source.
# How the values were obtained:
# Bacillus subtilis #10707 = assay: Minimum growth inhibitory concentration by agar dilution method; assay type: cell-based; conditions: for Minimum growth inhibitory concentration: Bacillus subtilis #10707, agar dilution method at pH 7.0; for MIC: Bacillus subtilis, pH 7, read-out: Minimum growth inhibitory concentration
# Excerpt: (§1) Minimum growth inhibitory concentration (μg/ml)
# (§2) by agar dilution method at pH 7.0
# Escherichia coli ATCC 26 = assay: as above; assay type: cell-based; conditions: for Minimum growth inhibitory concentration: Escherichia coli ATCC 26, agar dilution method at pH 7.0; for MIC: Escherichia coli, ATCC26, pH 7, read-out: Minimum growth inhibitory concentration
# Excerpt: as §1, §2
# [1] = system: Klebsiella pneumoniae ATCC 10031; assay: as above; assay type: cell-based; conditions: for Minimum growth inhibitory concentration: Klebsiella pneumoniae ATCC 10031, agar dilution method at pH 7.0
# Excerpt: as §1, §2
# [2] = system: Proteus vulgaris ATCC 6897; assay: as above; assay type: cell-based; conditions: for Minimum growth inhibitory concentration: Proteus vulgaris ATCC 6897; for MIC: Proteus vulgaris
# Excerpt: as §1, §2
# [3] = system: Pseudomonas cepacia ATCC 25608; assay: as above; assay type: cell-based; conditions: for Minimum growth inhibitory concentration: Pseudomonas cepacia ATCC 25608, agar dilution method at pH 7.0; for MIC: Burkholderia cepacia, ATCC25608, pH 7, read-out: Minimum growth inhibitory concentration
# Excerpt: as §1, §2
# [4] = system: Serratia marcescens ATCC 4003; assay: as above; assay type: cell-based; conditions: for Minimum growth inhibitory concentration: Serratia marcescens ATCC 4003, agar dilution method at pH 7.0; for MIC: Serratia marcescens, ATCC4003, pH 7, read-out: Minimum growth inhibitory concentration
# Excerpt: as §1, §2
# [5] = system: Shigella sonnei ATCC 9290; assay: as above; assay type: cell-based; conditions: for Minimum growth inhibitory concentration: Shigella sonnei ATCC 9290; for MIC: Shigella sonnei
# Excerpt: as §1, §2
# [6] = system: Staphylococcus aureus ATCC 6538P; assay: as above; assay type: cell-based; conditions: for Minimum growth inhibitory concentration: Staphylococcus aureus ATCC 6538P; for MIC: Staphylococcus aureus, ATCC6538P
# Excerpt: as §1, §2
# [7] = system: Salmonella typhosa ATCC 9992; assay: as above; assay type: cell-based; conditions: for Minimum growth inhibitory concentration: Salmonella typhosa ATCC 9992, agar dilution method at pH 7.0
# LD50 (mouse, ip.) = assay type: in vivo; conditions: in vivo, ip
# Excerpt: (§3) | LD50 (mouse, ip.) (mg/kg)
# various microorganisms = assay: Growth inhibition of various microorganisms / antibacterial activity (in words); assay type: cell-based; conditions: statement in words
# Excerpt: as §1, §2
# mouse = assay: LD50 (mouse, ip.); assay type: in vivo
# Excerpt: as §3
# [8] = agar dilution method at pH 7.0, listed as Vb-1
# [9] = agar dilution method at pH 7.0, listed as M-B
# [10] = agar dilution method at pH 7.0, listed as M-D
smiles,measurement,setting,value
COC1=C(C)C(=O)C2=C(C1=O)C(COC(N)=O)C1(O)C3C(CN21)N3C (stereo not drawn) [9-epi-mitomycin B],Minimum growth inhibitory concentration,Bacillus subtilis #10707; listed as Vb-1,< 0.024 µg/mL
same,Minimum growth inhibitory concentration,Escherichia coli ATCC 26; listed as Vb-1,12.5 µg/mL
same,Minimum growth inhibitory concentration,[1]; listed as Vb-1,< 0.024 µg/mL
same,Minimum growth inhibitory concentration,[2]; [8],0.049 µg/mL
same,Minimum growth inhibitory concentration,[3]; listed as Vb-1,25 µg/mL
same,Minimum growth inhibitory concentration,[4]; listed as Vb-1,3.1 µg/mL
same,Minimum growth inhibitory concentration,[5]; [8],6.3 µg/mL
same,Minimum growth inhibitory concentration,[6]; [8],0.049 µg/mL
same,Minimum growth inhibitory concentration,[7]; listed as Vb-1,6.3 µg/mL
same,LD50,"LD50 (mouse, ip.)",7.5 mg/kg
same,inhibiting activity against the growth of various microorganisms / antibacterial activity,various microorganisms,high inhibiting activity
CC1=C(N)C(=O)C2=C(C1=O)N1CC3C(N3C)C1(O)C2COC(N)=O (stereo not drawn) [9-epi-mitomycin D],MIC,Bacillus subtilis #10707,6.3 µg/mL
same,Minimum growth inhibitory concentration,[1]; listed as Va-1,3.1 µg/mL
same,MIC,"[2]; ATCC6897, pH 7, read-out: Minimum growth inhibitory concentration, Proteus vulgaris ATCC 6897, agar dilution method at pH 7.0",12.5 µg/mL
same,MIC,[3],> 50 µg/mL
same,MIC,[4],> 50 µg/mL
same,MIC,"[5]; ATCC9290, pH 7, read-out: Minimum growth inhibitory concentration, Shigella sonnei ATCC 9290, agar dilution method at pH 7.0",> 50 µg/mL
same,MIC,"[6]; pH 7, read-out: Minimum growth inhibitory concentration, Staphylococcus aureus ATCC 6538P, agar dilution method at pH 7.0",25 µg/mL
same,MIC,"[7]; Salmonella enterica, pH 7, read-out: Minimum growth inhibitory concentration",> 50 µg/mL
same,LD50,mouse,150 mg/kg
same,inhibiting activity against the growth of various microorganisms / antibacterial activity,various microorganisms,high inhibiting activity
"COC1=C(C)C(=O)C2=C(C1=O)C(COC(N)=O)C1(O)C3C(CN21)N3C (centres unmarked) [mitomycin B, Mitomycin B]",Minimum growth inhibitory concentration,Bacillus subtilis #10707; listed as M-B,0.020 µg/mL
same,Minimum growth inhibitory concentration,Escherichia coli ATCC 26; listed as M-B,> 10 µg/mL
same,Minimum growth inhibitory concentration,[1]; listed as M-B,0.16 µg/mL
same,Minimum growth inhibitory concentration,[2]; [9],0.078 µg/mL
same,Minimum growth inhibitory concentration,[3]; listed as M-B,10 µg/mL
same,Minimum growth inhibitory concentration,[4]; listed as M-B,2.5 µg/mL
same,Minimum growth inhibitory concentration,[5]; [9],5.0 µg/mL
same,Minimum growth inhibitory concentration,[6]; [9],0.039 µg/mL
same,Minimum growth inhibitory concentration,[7]; listed as M-B,10.0 µg/mL
same,LD50,mouse,4.5 mg/kg
"CO[C@@]12[C@H](COC(N)=O)C3=C(C(=O)C(C)=C(N)C3=O)N1C[C@@H]1N[C@@H]12 [mitomycin C, Mitomycin C]",MIC,Bacillus subtilis #10707,0.02 µg/mL
same,MIC,Escherichia coli ATCC 26,10 µg/mL
same,MIC,"[1]; Klebsiella pneumoniae, ATCC10031, pH 7, read-out: Minimum growth inhibitory concentration",0.0098 µg/mL
same,MIC,"[2]; ATCC6897, pH 7, read-out: Minimum growth inhibitory concentration",0.078 µg/mL
same,MIC,[3],10 µg/mL
same,MIC,[4],5 µg/mL
same,MIC,"[5]; ATCC9290, pH 7, read-out: Minimum growth inhibitory concentration",5 µg/mL
same,MIC,"[6]; pH 7, read-out: Minimum growth inhibitory concentration",0.156 µg/mL
"CC1=C(N)C(=O)C2=C(C1=O)N1CC3C(N3C)C1(O)C2COC(N)=O (centres unmarked) [mitomycin D, 7-amino-7-demethoxy mitomycin B]",Minimum growth inhibitory concentration,Bacillus subtilis #10707,6.3 µg/mL
same,MIC,Escherichia coli ATCC 26,> 50 µg/mL
same,Minimum growth inhibitory concentration,[1]; listed as M-D,6.3 µg/mL
same,Minimum growth inhibitory concentration,[2]; [10],25 µg/mL
same,Minimum growth inhibitory concentration,[5]; [10],50 µg/mL
same,Minimum growth inhibitory concentration,[6]; [10],50 µg/mL
same,Minimum growth inhibitory concentration,[7],> 50 µg/mL
same,LD50,mouse,430 mg/kg
